Source: ChEMBL document CHEMBL4392848, “Proline-based hydroxamates targeting the zinc-dependent deacetylase LpxC: Synthesis, antibacterial properties, and docking studies” (Bioorg Med Chem, 2019)
Converted amounts (≈) assume the structure as drawn.

Tests used:
Escherichia coli [1] = assay: Antibacterial activity against Escherichia coli BL21(DE3) assessed as diameter of inhibition zone measured after overnight incubation by agar disc diffusion method; assay type: functional; note: test concentration or dose not given here
Escherichia coli [2] = assay: Antibacterial activity against Escherichia coli D22 assessed as diameter of inhibition zone measured after overnight incubation by agar disc diffusion method; assay type: functional; note: test concentration or dose not given here
Escherichia coli [3] = assay: Antibacterial activity against Escherichia coli BL21(DE3) measured after 20 hrs by microdilution method; assay type: functional
Escherichia coli [4] = assay: Antibacterial activity against Escherichia coli D22 measured after 20 hrs by microdilution method; assay type: functional; settings: D22, 20 h
[5] = Inhibition of Escherichia coli LpxC C63A mutant using UDP-3-O-[(R)-3-hydroxymyristoyl]-N-acetylglucosamine as substrate measured after 30 mins by fluorescence based microplate assay
Klebsiella pneumoniae = assay: Antibacterial activity against Klebsiella pneumoniae assessed as diameter of inhibition zone measured after 24 hrs by agar disc diffusion method; assay type: functional; note: test concentration or dose not given here
Klebsiella oxytoca = assay: Antibacterial activity against Klebsiella oxytoca assessed as diameter of inhibition zone measured after 24 hrs by agar disc diffusion method; assay type: functional; note: test concentration or dose not given here
Enterobacter cloacae = assay: Antibacterial activity against Enterobacter cloacae assessed as diameter of inhibition zone measured after 24 hrs by agar disc diffusion method; assay type: functional; note: test concentration or dose not given here
Klebsiella aerogenes = assay: Antibacterial activity against Enterobacter aerogenes assessed as diameter of inhibition zone measured after 24 hrs by agar disc diffusion method; assay type: functional; note: test concentration or dose not given here
Proteus mirabilis = assay: Antibacterial activity against Proteus mirabilis assessed as diameter of inhibition zone measured after 24 hrs by agar disc diffusion method; assay type: functional; note: test concentration or dose not given here
Proteus vulgaris = assay: Antibacterial activity against Proteus vulgaris assessed as diameter of inhibition zone measured after 24 hrs by agar disc diffusion method; assay type: functional; note: test concentration or dose not given here
Citrobacter freundii = assay: Antibacterial activity against Citrobacter freundii assessed as diameter of inhibition zone measured after 24 hrs by agar disc diffusion method; assay type: functional; note: test concentration or dose not given here
Pseudomonas aeruginosa = assay: Antibacterial activity against Pseudomonas aeruginosa assessed as diameter of inhibition zone measured after 24 hrs by agar disc diffusion method; assay type: functional; note: test concentration or dose not given here

| Compound | diameter of the inhibition zone (DIZ) (Escherichia coli [1]) [mm] | diameter of the inhibition zone (DIZ) (Escherichia coli [2]) [mm] | MIC (Escherichia coli [3]) [µM] | MIC (Escherichia coli [4]) [µM] | IC50 [5] [µM] | Ki [5] [µM] | diameter of the inhibition zone (DIZ) (Klebsiella pneumoniae) [mm] | diameter of the inhibition zone (DIZ) (Klebsiella oxytoca) [mm] | diameter of the inhibition zone (DIZ) (Enterobacter cloacae) [mm] | diameter of the inhibition zone (DIZ) (Klebsiella aerogenes) [mm] | diameter of the inhibition zone (DIZ) (Proteus mirabilis) [mm] | diameter of the inhibition zone (DIZ) (Proteus vulgaris) [mm] | diameter of the inhibition zone (DIZ) (Citrobacter freundii) [mm] | diameter of the inhibition zone (DIZ) (Pseudomonas aeruginosa) [mm] |
| --- | --- | --- | --- | --- | --- | --- | --- | --- | --- | --- | --- | --- | --- | --- |
| CN(C)c1ccc(C#Cc2ccc(C(=O)N3C[C@@H](O)C[C@H]3C(=O)NO)cc2)cc1 | <6 | 13 | 256 (≈ 101 µg/mL) | 32 (≈ 12.6 µg/mL) | 16.7 | 2.3 | 9 | 8 | 8 | 9 | 8 | <6 | 9 | <6 |
| O=C(NO)[C@@H]1CCCN1C(=O)c1ccc(C#Cc2ccc(CN3CCCCC3)cc2)cc1 | 7 | 18.7 | > 256 | 128 (≈ 55.2 µg/mL) | > 200 | > 27.6 | 13 | 9 | 10 | 12 | 10 | 11 | 8 | <6 |
| O=C(NO)[C@@H]1CCCN1C(=O)c1ccc(C#Cc2ccc(CN3CCSCC3)cc2)cc1 | 12.7 | 18 | 128 (≈ 57.5 µg/mL) | 8 (≈ 3.6 µg/mL) | 45.2 | 6.2 | 18 | 11 | 14 | 14 | 12 | 10 | 14 | <6 |
| O=C(NO)[C@@H]1CCCN1C(=O)c1ccc(C#Cc2ccccc2)cc1 | <6 | 12 | > 256 | 128 (≈ 42.8 µg/mL) | > 200 | > 27.6 | <6 | 8 | 8 | <6 | <6 | 7 | 8 | <6 |
| O=C(NO)[C@@H]1CCCN1C(=O)c1ccc(C#Cc2ccc(CN3CCS(=O)(=O)CC3)cc2)cc1 | 10.7 | 17 | > 256 | 64 (≈ 30.8 µg/mL) | 17.1 | 2.4 | 11 | <6 | 10 | 8 | 9 | 10 | <6 | <6 |
| O=C(NO)[C@@H]1C[C@H](O)CN1C(=O)c1ccc(C#Cc2ccc(CN3CCC(O)CC3)cc2)cc1 | 15.7 | 23.7 | 64 (≈ 29.7 µg/mL) | 4 (≈ 1.85 µg/mL) | 44 | 6.1 | <6 | <6 | <6 | 9 | 11 | <6 | <6 | <6 |
| O=C(NO)[C@@H]1CCCN1Cc1ccc(C#Cc2ccc(CN3CCSCC3)cc2)cc1 | 10.7 | 17.7 | 64 (≈ 27.9 µg/mL) | 1 (≈ 0.436 µg/mL) | 8.1 | 1.1 | 14 | 11 | 14 | 13 | 8 | <6 | 13 | <6 |
| O=C(NO)[C@@H]1C[C@H](O)CN1C(=O)c1ccc(C#Cc2ccc(CN3CCCC3)cc2)cc1 | <6 | 14.3 | > 256 | 64 (≈ 27.7 µg/mL) | > 200 | > 27.6 | <6 | <6 | <6 | <6 | <6 | <6 | <6 | <6 |
| O=C(NO)[C@@H]1C[C@H](O)CN1C(=O)c1ccc(C#Cc2ccc(CN3CCCCC3)cc2)cc1 | <6 | 19.2 | > 256 | 32 (≈ 14.3 µg/mL) | 54.5 | 7.5 | 9 | 9 | <6 | 10 | 11 | 13 | 9 | <6 |
| O=C(NO)[C@@H]1C[C@H](O)CN1C(=O)c1ccc(C#Cc2ccc(CN3CCSCC3)cc2)cc1 | 13 | 21.3 | 128 (≈ 59.6 µg/mL) | 8 (≈ 3.72 µg/mL) | 32.8 | 4.5 | 15 | 11 | 14 | 18 | 10 | 9 | 14 | <6 |
